Legend:
[1] = target: T1, 5-hydroxytryptamine receptor 1A (Homo sapiens, UniProt P08908); format: functional, cell-based
T1 sequence (P08908 whole entry): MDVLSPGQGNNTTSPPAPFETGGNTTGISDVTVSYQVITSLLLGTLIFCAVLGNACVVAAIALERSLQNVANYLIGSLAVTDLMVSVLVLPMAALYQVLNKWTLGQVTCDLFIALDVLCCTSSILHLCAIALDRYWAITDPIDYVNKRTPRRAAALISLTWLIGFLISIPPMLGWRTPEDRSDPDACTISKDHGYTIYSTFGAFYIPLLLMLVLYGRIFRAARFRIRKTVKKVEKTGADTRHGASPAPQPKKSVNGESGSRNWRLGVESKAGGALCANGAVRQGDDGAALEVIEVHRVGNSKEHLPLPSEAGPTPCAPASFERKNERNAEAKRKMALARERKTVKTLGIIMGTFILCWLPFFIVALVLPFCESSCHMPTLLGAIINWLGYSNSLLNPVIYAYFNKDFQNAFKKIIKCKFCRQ

[2] = target: T2, Alpha-1A adrenergic receptor (Homo sapiens, UniProt P35348)
T2 sequence (P35348 whole entry): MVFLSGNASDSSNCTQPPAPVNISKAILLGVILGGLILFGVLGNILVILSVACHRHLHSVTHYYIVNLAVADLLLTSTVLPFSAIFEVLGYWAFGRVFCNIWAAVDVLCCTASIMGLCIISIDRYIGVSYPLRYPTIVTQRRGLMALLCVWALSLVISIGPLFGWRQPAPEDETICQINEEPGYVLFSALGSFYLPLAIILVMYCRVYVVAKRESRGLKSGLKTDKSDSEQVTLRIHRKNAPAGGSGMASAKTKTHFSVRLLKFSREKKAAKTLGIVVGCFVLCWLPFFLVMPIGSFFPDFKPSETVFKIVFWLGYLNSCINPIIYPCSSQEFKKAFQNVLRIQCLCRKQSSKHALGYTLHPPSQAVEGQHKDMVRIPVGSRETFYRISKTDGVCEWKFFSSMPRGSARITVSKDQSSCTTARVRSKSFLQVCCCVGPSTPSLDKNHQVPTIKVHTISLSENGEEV

Mu-type opioid receptor [3] = target: T3, Mu-type opioid receptor (Homo sapiens, UniProt P35372); experiment: biochemical; format: functional
Estrogen receptor = target: T4, Estrogen receptor (Homo sapiens, UniProt P03372)
T4 sequence (P03372 whole entry): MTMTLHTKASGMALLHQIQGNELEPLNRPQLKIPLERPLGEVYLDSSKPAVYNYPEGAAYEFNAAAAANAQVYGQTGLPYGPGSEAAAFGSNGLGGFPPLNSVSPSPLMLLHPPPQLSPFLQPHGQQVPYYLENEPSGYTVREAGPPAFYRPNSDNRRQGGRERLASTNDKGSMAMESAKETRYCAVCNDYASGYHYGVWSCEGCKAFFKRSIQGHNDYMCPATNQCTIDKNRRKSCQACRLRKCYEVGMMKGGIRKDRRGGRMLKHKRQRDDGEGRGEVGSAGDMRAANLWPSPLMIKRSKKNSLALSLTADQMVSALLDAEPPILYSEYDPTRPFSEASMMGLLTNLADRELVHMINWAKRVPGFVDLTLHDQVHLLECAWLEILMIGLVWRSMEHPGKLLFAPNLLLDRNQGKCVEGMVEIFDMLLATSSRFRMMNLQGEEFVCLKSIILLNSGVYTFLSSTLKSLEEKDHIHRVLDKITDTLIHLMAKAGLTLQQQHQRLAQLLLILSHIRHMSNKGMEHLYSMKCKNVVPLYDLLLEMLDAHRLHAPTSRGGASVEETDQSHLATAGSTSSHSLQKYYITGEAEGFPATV

[4] = target: T2, Alpha-1A adrenergic receptor; format: functional, cell-based
[5] = target: T5, Muscarinic acetylcholine receptor M1 (Homo sapiens, UniProt P11229); format: functional
T5 sequence (P11229 whole entry): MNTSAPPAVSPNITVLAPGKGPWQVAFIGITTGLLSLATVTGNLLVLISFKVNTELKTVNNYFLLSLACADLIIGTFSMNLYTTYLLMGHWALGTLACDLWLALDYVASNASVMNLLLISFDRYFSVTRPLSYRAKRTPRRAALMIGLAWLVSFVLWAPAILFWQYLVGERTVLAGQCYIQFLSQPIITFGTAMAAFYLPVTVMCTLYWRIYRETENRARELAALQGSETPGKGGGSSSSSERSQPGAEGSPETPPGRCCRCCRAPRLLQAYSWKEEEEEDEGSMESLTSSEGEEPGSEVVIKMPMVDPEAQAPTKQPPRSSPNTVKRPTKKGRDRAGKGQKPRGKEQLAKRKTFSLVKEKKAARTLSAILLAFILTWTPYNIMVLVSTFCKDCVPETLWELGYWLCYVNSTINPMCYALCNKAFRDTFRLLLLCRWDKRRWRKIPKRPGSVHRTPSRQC

[6] = target: 5-hydroxytryptamine receptor 2A (Homo sapiens, UniProt P28223); format: functional, cell-based
Mu-type opioid receptor [7] = target: T3, Mu-type opioid receptor
Melanocortin receptor 4 = Melanocortin receptor 4 (Homo sapiens, UniProt P32245)
Cannabinoid receptor 1 = Cannabinoid receptor 1 (Homo sapiens, UniProt P21554)
[8] = target: T1, 5-hydroxytryptamine receptor 1A
Also: assay procedure not described here.

Melanocortin receptor 4, sequence (P32245 whole entry): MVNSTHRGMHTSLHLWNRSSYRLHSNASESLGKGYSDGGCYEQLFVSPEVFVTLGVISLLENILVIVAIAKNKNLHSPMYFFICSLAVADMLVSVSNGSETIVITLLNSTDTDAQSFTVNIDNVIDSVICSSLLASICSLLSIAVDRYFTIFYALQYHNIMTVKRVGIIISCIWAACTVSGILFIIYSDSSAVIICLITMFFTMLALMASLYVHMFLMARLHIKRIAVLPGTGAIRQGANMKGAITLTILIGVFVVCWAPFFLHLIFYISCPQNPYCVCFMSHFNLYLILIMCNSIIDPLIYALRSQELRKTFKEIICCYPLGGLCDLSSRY
T3 sequence (P35372 whole entry): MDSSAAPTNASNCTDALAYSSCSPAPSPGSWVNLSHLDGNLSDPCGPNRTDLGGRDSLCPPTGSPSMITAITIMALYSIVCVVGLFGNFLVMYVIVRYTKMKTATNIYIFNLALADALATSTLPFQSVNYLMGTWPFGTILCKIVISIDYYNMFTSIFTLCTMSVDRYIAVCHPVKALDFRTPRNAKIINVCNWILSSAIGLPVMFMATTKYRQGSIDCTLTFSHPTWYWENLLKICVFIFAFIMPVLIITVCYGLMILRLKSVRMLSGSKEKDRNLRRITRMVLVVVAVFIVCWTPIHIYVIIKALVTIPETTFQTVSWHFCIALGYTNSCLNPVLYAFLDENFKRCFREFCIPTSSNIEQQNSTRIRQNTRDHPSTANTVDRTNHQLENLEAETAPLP
5-hydroxytryptamine receptor 2A, sequence (P28223 whole entry): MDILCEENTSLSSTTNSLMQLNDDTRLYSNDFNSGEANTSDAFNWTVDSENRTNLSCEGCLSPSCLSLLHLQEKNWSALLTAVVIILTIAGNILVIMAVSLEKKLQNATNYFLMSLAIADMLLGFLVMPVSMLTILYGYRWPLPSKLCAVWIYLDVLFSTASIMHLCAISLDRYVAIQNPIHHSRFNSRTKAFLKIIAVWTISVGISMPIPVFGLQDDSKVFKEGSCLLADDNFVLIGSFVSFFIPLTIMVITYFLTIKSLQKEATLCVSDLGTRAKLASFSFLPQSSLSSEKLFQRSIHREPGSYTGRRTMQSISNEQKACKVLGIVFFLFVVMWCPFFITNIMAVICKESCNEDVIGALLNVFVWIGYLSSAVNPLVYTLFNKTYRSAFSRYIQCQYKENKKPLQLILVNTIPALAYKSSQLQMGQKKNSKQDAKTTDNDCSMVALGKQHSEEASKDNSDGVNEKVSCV
Cannabinoid receptor 1, sequence (P21554 whole entry): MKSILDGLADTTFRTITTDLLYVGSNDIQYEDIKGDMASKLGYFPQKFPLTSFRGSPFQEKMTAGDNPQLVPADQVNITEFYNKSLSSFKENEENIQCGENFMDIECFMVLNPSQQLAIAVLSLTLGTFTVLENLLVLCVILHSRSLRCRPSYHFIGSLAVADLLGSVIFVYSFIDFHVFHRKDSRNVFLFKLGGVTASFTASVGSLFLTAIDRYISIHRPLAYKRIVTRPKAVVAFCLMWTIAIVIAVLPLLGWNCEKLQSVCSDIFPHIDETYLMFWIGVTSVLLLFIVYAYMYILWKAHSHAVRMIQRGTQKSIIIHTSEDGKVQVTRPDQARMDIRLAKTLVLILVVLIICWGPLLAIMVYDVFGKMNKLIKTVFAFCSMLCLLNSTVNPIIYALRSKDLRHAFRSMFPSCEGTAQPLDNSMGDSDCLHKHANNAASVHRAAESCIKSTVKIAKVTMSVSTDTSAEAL

| Compound | AC50 [1] [µM] | AC50 [2] [µM] | AC50 (Mu-type opioid receptor [3]) [µM] | AC50 (Estrogen receptor) [µM] | AC50 [4] [µM] | AC50 [5] [µM] | AC50 [6] [µM] | AC50 (Mu-type opioid receptor [7]) [µM] | AC50 (Melanocortin receptor 4) [µM] | AC50 (Cannabinoid receptor 1) [µM] | AC50 [8] [µM] |
| --- | --- | --- | --- | --- | --- | --- | --- | --- | --- | --- | --- |
| CC(C)N(CCCCOCC(=O)O)c1cnc(-c2ccccc2)c(-c2ccccc2)n1 | > 30 | > 30 | > 30 | > 30 | > 30 | > 30 | > 30 |  |  |  |  |
| CC(=O)c1ccc(S(=O)(=O)NC(=O)NC2CCCCC2)cc1 [ACETOHEXAMIDE] | > 10 | > 10 | > 30 | > 10 | > 30 | > 10 | > 30 | > 30 | > 10 | > 10 |  |
| COc1cc(C)c(/C=C/C(C)=C/C=C/C(C)=C/C(=O)O)c(C)c1C [ACITRETIN] |  | > 10 |  | > 30 | > 30 | > 10 | > 10 | > 30 | > 10 | > 10 |  |
| O=C(O)c1ccc(NC(=O)[C@H](Cc2ccc(O)cc2)NC(=O)c2ccccc2)cc1 [BENTIROMIDE] | > 10 | > 10 |  | > 10 |  | > 10 | > 10 | > 30 | > 10 | > 10 |  |
| NS(=O)(=O)c1cc2c(cc1Cl)N=C(CSCc1ccccc1)NS2(=O)=O [BENZTHIAZIDE] | > 10 | > 30 | > 30 | > 30 |  | > 30 | > 10 | > 30 | > 10 | > 10 |  |
| Clc1ccc(CCC(Cn2ccnc2)Sc2c(Cl)cccc2Cl)cc1 (stereo unspecified) [BUTOCONAZOLE] |  |  | > 30 | 20 | > 30 | > 30 | > 30 |  |  | > 30 |  |
| CO/N=C(\C(=O)N[C@@H]1C(=O)N2C(C(=O)O)=C(CSc3nc(=O)c(=O)[nH]n3C)CS[C@H]12)c1csc(N)n1 [CEFTRIAXONE] | > 30 |  | > 30 | > 30 | > 30 | > 30 | > 30 |  |  |  |  |
| CC(C)[C@@H](C)/C=C/[C@@H](C)[C@H]1CC[C@H]2/C(=C/C=C3\C[C@@H](O)CC[C@@H]3C)CCC[C@]12C [DIHYDROTACHYSTEROL] | > 10 | > 10 |  | > 30 |  | > 10 | > 10 | > 30 | > 10 | > 10 |  |
| Oc1ccc(CCNCCCCCCNCCc2ccccc2)cc1O [DOPEXAMINE] | > 30 |  | > 30 | > 30 | 1.4 | 14 | > 30 |  |  |  |  |
| CC(C)NC[C@H](O)COc1ccc(CC(N)=O)cc1 [ESATENOLOL] | > 10 | > 10 |  | > 30 |  |  |  |  | > 30 |  | > 10 |
| CC/C=C\C/C=C\C/C=C\C/C=C\C/C=C\CCCC(=O)OCC [ICOSAPENT ETHYL] | > 30 |  | > 30 | > 10 | > 30 | > 30 | > 30 |  |  |  |  |
| COc1ccc(CN2CCN(C(c3ccc(F)cc3)c3ccc(F)cc3)CC2)c(OC)c1OC [LOMERIZINE] |  |  | 3.3 |  | 8.2 | 0.94 | > 30 | 9.7 |  |  |  |
| CC(=O)[C@H]1CC[C@H]2[C@@H]3C[C@H](C)C4=CC(=O)CC[C@]4(C)[C@H]3[C@@H](O)C[C@]12C [MEDRYSONE] | > 10 | > 10 |  |  | > 30 | > 10 | > 10 | > 30 | > 10 |  |  |
| CCCC(C)(COC(N)=O)COC(N)=O [MEPROBAMATE] | > 10 | > 30 | > 30 |  |  | > 30 | > 10 | > 30 | > 10 | > 10 |  |
| Cc1ccnc2c1NC(=O)c1cccnc1N2C1CC1 [NEVIRAPINE] | > 10 | > 10 |  |  | > 30 |  |  | > 10 | > 30 | > 10 | > 10 |
| O=C(c1cc(Cc2n[nH]c(=O)c3ccccc23)ccc1F)N1CCN(C(=O)C2CC2)CC1 [OLAPARIB] |  | > 10 |  | > 30 |  | > 10 | > 10 | > 30 | > 30 | > 10 |  |
| O=c1[nH]c2ccccc2n1CCCN1CCN(C(c2ccccc2)c2ccccc2)CC1 [OXATOMIDE] |  |  | 1.8 |  | 4.1 | 5.8 | > 30 | 1.2 |  |  |  |
| Fc1ccc([C@@H]2CCNC[C@H]2COc2ccc3c(c2)OCO3)cc1 [PAROXETINE] | > 10 |  |  | > 30 |  |  |  |  | > 30 | 2.72 | > 10 |
| O=c1c(O)c(-c2ccc(O)c(O)c2)oc2cc(O)cc(O)c12 [QUERCETIN] | > 10 |  |  | > 30 |  | > 10 |  |  | > 30 |  | > 10 |
| CC1=C(/C=C/C(C)=C/C=C/C(C)=C/CO)C(C)(C)CCC1 [RETINOL] | > 10 | > 10 | > 30 | > 30 |  | > 10 | > 10 | > 30 | > 10 | > 10 |  |
| C=CC[N+]1([C@H]2C[C@H]3[C@@H]4CC[C@H]5C[C@H](O)[C@@H](N6CCOCC6)C[C@]5(C)[C@H]4CC[C@]3(C)[C@H]2OC(C)=O)CCCC1 [ROCURONIUM] | > 30 |  | > 30 | > 30 | > 30 | > 30 | > 30 |  | > 30 | > 30 |  |
| C=CCN1CCc2nc(N)sc2CC1 [TALIPEXOLE] | > 30 | > 30 | > 30 |  |  | > 30 | 11 |  |  |  |  |
| CCOC(=O)[C@@H](N)Cc1ccc(-c2cc(O[C@H](c3ccc(Cl)cc3-n3ccc(C)n3)C(F)(F)F)nc(N)n2)cc1 [TELOTRISTAT ETHYL] |  |  |  |  | > 30 | > 30 | > 30 | > 30 |  |  |  |
| Cn1c(=O)c2c(ncn2CCOC(=O)C(C)(C)Oc2ccc(Cl)cc2)n(C)c1=O [THEOFIBRATE] | > 30 |  | > 30 | > 30 | > 30 | > 30 | > 30 |  |  |  |  |
| CC(C)(C)NCC(O)c1ccccc1Cl (stereo unspecified) [TULOBUTEROL] | > 30 |  | > 30 | > 30 | > 30 | > 30 | > 30 |  |  |  |  |

— ChEMBL document CHEMBL5291721, “A preclinical secondary pharmacology resource illuminates target-adverse drug reaction associations of marketed drugs” (Nat Commun, 2023)
